Experimental data: US4994457A, “Antiinflammatory compositions and methods” (Pfizer Inc., priority 1987, dated 1991)
Structures can show the parent of a compound that is named as a salt.

Tests used:
[1] = system: Piroxicam-Induced Gastric Lesions in Rats; test: Protective effect of disodium 5'-guanylate on piroxicam-induced gastric lesions in rats; type: in vivo, CD strain (Sprague-Dawley), male; settings: for Lesions/Rat (X +/- SE): mean (SE)
Procedure: (§1) Adult male "specific pathogen free" rats weighing 140-160 grams of the CD strain (Sprague-Dawley) were obtained from Charles River Breeding Laboratories (Kingston, N.Y.). The animals were acclimated for approximately one week and tested when they reached a body weight of 200-225 grams. The rats were fasted for 16 hours and randomized into groups consisting of 10 animals which were normalized with regard to their average body weight.
(§2) Gastric ulcers were induced in the animals by orally dosing them with a single 120 mg/kg dose of piroxicam (ethanolamine salt) in 2 ml. of aqueous 0.1% methylcellulose (pH=6.8). Those animals receiving disodium 5'-guanylate separately received the second drug in an additional 2 ml. of the same medium at about the same time. Six and one-half hours later, the animals were sacrificed by cervical dislocation and autopsied. The stomachs were surgically removed, dissected along the greater curvature and rinsed with cold water. The stomachs were individually scored for both linear and punctate lesions. The total number of lesions was used for scoring purposes. The data obtained from each group of rats was analyzed after calculation of the mean number +/- the standard error of total gastric lesions. The values obtained were also compared to the controls which received only piroxicam by the two-tailed Student's T-Test for non-paired data.

[2] = system: Piroxicam Induced Gastric Lesions in Rats; test: Protective effect of N-acetyl-L-methionine on piroxicam induced gastric lesions in rats; type: in vivo, CD strain (Sprague-Dawley), male; settings: for Lesions/Rat (X +/- SE): mean (SE)
Procedure: as §1, §2
By the procedure of the preceding Example, the protective effect of the N-acetyl-L-methionine on piroxicam induced gastric lesions in rats was determined.

gastric ulcers in rats = settings: Tanaka et al. 1982, Kunimi et al. 1982; cited from earlier work
[3] = system: gastric mucosal damage of aspirin solutions in rats; settings: Lim et al. 1979; cited from earlier work
[4] = system: gastrointestinal ulcers induced by the subcutaneous injection of indomethacin; settings: Urishidani et al. 1977; cited from earlier work
[5] = stated as background for single daily dosage; cited from earlier work

## Nc1nc2c(ncn2[C@@H]2O[C@H](COP(=O)(O)O)[C@@H](O)[C@H]2O)c(=O)[nH]1 [Disodium 5'-Guanylate, guanosine 5'-monophosphate]
[1]; healthy fasted rat, oral
  reduction of piroxicam-induced gastric lesions: significantly reduces piroxicam-induced gastric lesions
[1]; oral 1.0 mg/kg, 20 rats, with 120 mg/kg piroxicam ethanolamine salt
  Lesions/Rat (X +/- SE): 8.1 (0.7) Lesions/Rat
[1]; oral 3.3 mg/kg, 20 rats, with 120 mg/kg piroxicam ethanolamine salt
  Lesions/Rat (X +/- SE): 5.8 (0.5) Lesions/Rat
[1]; oral 10.0 mg/kg, 30 rats, with 120 mg/kg piroxicam ethanolamine salt
  Lesions/Rat (X +/- SE): 4.6 (0.8) Lesions/Rat
[1]; oral 33.0 mg/kg, 40 rats, with 120 mg/kg piroxicam ethanolamine salt
  Lesions/Rat (X +/- SE): 3.9 (0.6) Lesions/Rat

## CN1C(C(=O)Nc2ccccn2)=C(O)c2ccccc2S1(=O)=O [Ethanolamine Salt of Piroxicam, 4-hydroxy-2-methyl-N-2-pyridinyl-2H-1,2-benzothiazine-3-carboxamide 1,1-dioxide, reference compound]
[1]; control: 120 mg/kg oral ethanolamine salt of piroxicam alone, 40 rats, 6.5 h
  Lesions/Rat (X +/- SE): 8.3 (0.9) Lesions/Rat
[2]; control: 120 mg/kg oral ethanolamine salt of piroxicam alone, 50 rats
  Lesions/Rat (X +/- SE): 8.0 (0.8) Lesions/Rat

## NCCC(=O)N[C@@H](Cc1cnc[nH]1)C(=O)O [L-carnosine]
Gastric ulcers in rats
  prevention of the exacerbation of gastric ulcers by certain antiinflammatory agents: not

## CSCC[C@H](NC(C)=O)C(=O)O [N-Acetyl-L-methionine, N-acetyl-L-methionine]
[2]; Rattus norvegicus, 6.5 h, oral, 120 mg/kg piroxicam ethanolamine salt, read-out: ED50 (dose of the N-acetylmethionine required to inhibit 50% of control gastric lesions)
  ED50: 100 to 333 mg/kg
[2]; oral 33 mg/kg, 50 rats, with 120 mg/kg piroxicam ethanolamine salt
  Lesions/Rat (X +/- SE): 6.9 (0.8) Lesions/Rat
[2]; oral 100 mg/kg, 40 rats, with 120 mg/kg piroxicam ethanolamine salt
  Lesions/Rat (X +/- SE): 3.9 (0.8) Lesions/Rat
[2]; oral 333 mg/kg, 20 rats, with 120 mg/kg piroxicam ethanolamine salt
  Lesions/Rat (X +/- SE): 3.5 (0.9) Lesions/Rat

## CC(=O)NCCC(=O)N[C@@H](Cc1c[nH]cn1)C(=O)O [N-acetyl-L-carnosine, N-(N-acetyl-beta-alanyl)-L-histidine]
Gastric ulcers in rats
  prevention of the exacerbation of gastric ulcers by certain antiinflammatory agents: not

## CC(=O)NCCC(=O)N[C@@H](Cc1c[nH]cn1)C(=O)O [aluminum salts of N-acetyl-L-carnosine, N-(N-acetyl-beta-alanyl)-L-histidine]
Gastric ulcers in rats
  prevention of the exacerbation of gastric ulcers by certain antiinflammatory agents: prevent the exacerbation of gastric ulcers

## CC(=O)N[C@@H](CCC(N)=O)C(=O)O [aluminum salts of N-acetyl-L-glutamine, N-acetyl-L-glutamine]
Gastric ulcers in rats
  prevention of the exacerbation of gastric ulcers by certain antiinflammatory agents: prevent the exacerbation of gastric ulcers

## CSCC[C@H](N)C(=O)O [methionine]
[3]
  effect on gastric mucosal damage of aspirin solutions: beneficial effect
[4]
  inhibition of gastrointestinal ulcers: inhibit gastrointestinal ulcers

## CN1C(C(=O)Nc2ccccn2)=C(O)c2ccccc2S1(=O)=O [piroxicam, 4-hydroxy-2-methyl-N-2-pyridinyl-2H-1,2-benzothiazine-3-carboxamide 1,1-dioxide]
[5]
  in vivo half-life: long
